“And” between values parts separate entries of the source, which are not always exact repeats. Equal entries are not always repeated.
What was measured:
[1] = oral magnesium salts, background statement; cited from earlier work
[2] = normal: minimum 33.9 mEq/IU; cited from earlier work
[3] = healthy subjects, approximately 21 mEq, urinary excretion; cited from earlier work
[4] = Absolute bioavailability study: serum magnesium pharmacokinetics; conditions: fasted; for AUC0-72 / AUC0-t / Cmax: mean (SD); for Tmax: median (range)
Excerpt: (§1) A study has been conducted to investigate magnesium L-lactate dihydrate extended release caplets for management of magnesium-deficient patients who have experienced electrolyte imbalance due to iatrogenic or disease cause such as episodic migraine headaches. […] A study to compare the absolute bioavailability of an oral magnesium formulation compared to an IV administered magnesium sulfate including both serum and urine pharmacokinetic parameters has never been reported in the scientific literature.
(§2) Three treatment regimens (Treatments A, B, and C) were employed in the study.
(§3) Urine and blood samples were collected for pharmacokinetic (PK) analysis of urinary and serum magnesium concentrations. A total of 29 urine samples for each subject were collected continuously throughout the study for determination of fractional and daily urine magnesium concentrations, and 33 blood samples were collected from each subject for determination of serum magnesium concentrations at each time point during the study.
(§4) The PK analysis population included 29 subjects for Treatment A, 29 subjects for Treatment B, and 31 subjects for Treatment C.
(§5) The absolute bioavailability of magnesium was evaluated by comparing serum magnesium exposure (AUC0-72) or urinary magnesium excretion (Ae0-72) after oral versus IV administration.

[5] = Absolute bioavailability study: urinary magnesium pharmacokinetics; conditions: baseline-adjusted, Treatment B: IV infusion 20 mEq over 4 hours, fasted
Excerpt: as §1, §2, §3, §4, §5

[6] = baseline-adjusted, Treatment B: IV infusion 20 mEq over 4 hours
[7] = observed, Treatment B: IV infusion 20 mEq over 4 hours

[Cl-].[Cl-].[Mg+2] [magnesium chloride]
bioavailability [1]: about 20%

CC(O)C(=O)[O-].CC(O)C(=O)[O-].[Mg+2] (stereo not drawn) [magnesium lactate, 2-hydroxypropanoic acid magnesium salt]
effective in repleting intracellular magnesium levels to normal ranges [2]: 100%

[O]=[Mg] [magnesium oxide]
bioavailability [1]: about 2%
fractional absorption average [3]: 4%

O=S(=O)([O-])[O-].[Mg+2] [magnesium sulfate]
AUC0-72 [4, 6]: 76.2 (37.9) h · μg/mL
AUC0-t [4, 6]: 72.8 (35.4) h · μg/mL
Cmax [4, 6]: 6.79 (1.46) μg/mL
Tmax [4, 6]: 4.00 (2.00-6.00) h
AUC0-72 [4, 7]: 1390 (121) h · μg/mL
AUC0-t [4, 7]: 1390 (121) h · μg/mL
Cmax [4, 7]: 25.7 (1.62) μg/mL
Tmax ([4]; observed, Treatment B: single IV infusion 20 mEq over 4 hours): 4.00 (2.00-6.00) h
CLR0-72 ([5]; median (range)): 3.57 (1.44-35.6) L/h
Ae0-72 ([5]; urine, mean (SD)): 225 (49.5) mg
Rmax ([5]; urine, mean (SD)): 20.5 (4.29) mg/h
fe0-72 ([5]; urine, mean (SD)): 92.7% and 92.7 (20.4) %
Tmax,rate ([5]; urine, median (range)): 5.00 (3.00-9.00) h

magnesium gluconate
bioavailability [1]: about 20%
